Measurements: US20060025477A1, “Analogs of isovaleramide, a pharmaceutical composition including the same, and a method of treating central nervous system conditions or diseases” (priority 2004, published 2006)
Values joined by “and” are separate entries in the source; they are usually repeats but may differ in a detail not shown here. Equal values may be shown once. Read-outs that look alike come from different tables or passages of the source.

Legend:
[1] = tested on: Frings audiogenic seizure-susceptible mouse; assay: Frings audiogenic seizure assay (protection against sound-induced tonic hindlimb extension); format: in vivo; settings: for Seizure Score ± S.E.M.: score 1-5; for ED50: Mus musculus, po
Description: The anticonvulsant activity of compound S ((S)-(+)-2,2-dimethylcyclopropane-carboxamide) was tested using the Frings audiogenic seizure-susceptible mouse. […] Compound S, which is a solution at 300 mg/kg and a suspension at 600 mg/kg, was administered to the mice at the doses indicated in Tables 1-3. Compound S was obtained from Sigma-Aldrich Chemical Co. (Aldrich catalog number: 43,463-9).
At the time of testing, individual mice were placed into a round Plexiglas chamber and exposed to a sound stimulus of 110 decibels, 11 kHz, for 20 seconds. Mice not displaying tonic hindlimb extensions upon exposure to the sound stimulus were considered protected. In addition, the seizure score for each mouse was recorded as: (1) running for less than 10 seconds; (2) running for greater than 10 seconds; (3) clonic activity of limbs and/or vibrissae; (4) forelimb extension/hindlimb flexion; and (5) hindlimb extension. The average seizure score was calculated for each group of mice used in the dose-response study.
The anticonvulsant activity of compounds I, W, X, and AA was tested using the Frings audiogenic seizure-susceptible mouse model as described in Example 23. […] The therapeutic index relates to separation between therapeutic efficacy and CNS toxicity as measured by motor impairment in the rotarod performance test.

[2] = Rotarod test of motor impairment (toxicity) in the Frings study; format: in vivo; settings: Frings, mouse, in vivo, po, rotarod, Table 4
Description: (§1) At each dose, the mice were also tested on a rotarod for testing of motor impairment (toxicity). Testing for motor impairment on the rotarod involved placing a mouse for a three-minute trial period on a one-inch diameter rod rotating at six revolutions per minute. If the mouse fell off of the rotating rod three times within the three-minute time period, the dose was considered a toxic response.
(§2) The therapeutic index relates to separation between therapeutic efficacy and CNS toxicity as measured by motor impairment in the rotarod performance test.

[3] = tested on: Frings mice; assay: as above; format: in vivo
Description: as §1, §2

[4] = tested on: male Swiss-Webster mice; assay: Maximal electroshock (MES)-induced tonic extension seizure test; format: in vivo, mouse; settings: 300 mg/kg p.o.
Description: In the MES test, a substance is administered orally (p.o.) and is tested for efficacy against maximal electroshock (MES)-induced tonic extension seizures. Adult male Swiss-Webster mice (each 20-25 g of body weight) were used. The mice were housed in Association for the Assessment and Accreditation of Laboratory Animal Care-approved facilities under a constant 12-hour light/dark cycle with a constant temperature of 21° C.-23° C. and a relative humidity of 30% to 50%. All animals were permitted free access to standard laboratory chow (Prolab RMH 3000; PMI Nutrition International, LLC, Brentwood, Mo.) and water, except when removed from their home cages for testing. All mice were handled in a manner consistent with the recommendations in the National Research Council Publication Guide for the Care and Use of Laboratory Animals.
(§3) Test compounds (Compound S, Compound W, the S-enantiomer of Compound AA, the R-enantiomer of Compound AA, Compound HH, Compound JJ, and Compound MM) were dissolved in saline containing 0.5% methylcellulose. To determine time to peak effect, 300 mg/kg of each of the test compounds was suspended in 0.5% methylcellulose in saline and administered orally to a group of 20 mice. For comparative purposes, isovaleramide was also tested. At various times (0.25, 0.5, 1, 2, and 4 hours) after p.o. administration, individual mice were placed on the rotarod and tested for their ability to maintain balance on a rotating (6 rpm) 2.5-cm diameter knurled rod for 60 seconds. Mice that fell three times in this 60-second trial were considered impaired.
Following rotarod testing, the mice were tested in the maximal electroshock (MES)-induced tonic extension seizures test. For this test, a drop of electrolyte solution (0.5% butacaine sulfate in 0.9% saline) was placed on the eyes of each mouse prior to placement of corneal electrodes. The mice were restrained by gripping the loose skin on their dorsal surface and saline-coated corneal electrodes were held lightly against the two corneas. Each mouse received an electrical stimulation (50 mAmp, 50 Hz current, 0.2 sec) delivered through a silver-coated corneal electrode using an electroshock machine as originally described by Woodbury and Davenport (Arch Int. Pharmacodyn. Ther., 92:97-104, 1952). […] A tonic seizure was defined as a hindlimb extension in excess of 90 degrees from the plane of the body. Results were treated in a quantal manner. […] ED50's (the effective dose at which 50% of the mice were protected) were determined for Compounds W and HH by administering various doses (30, 100, 300 mg/kg) at the previously determined time to peak effect, as shown in Table 11.

[5] = tested on: male Swiss-Webster mice; assay: Rotarod impairment test before MES testing; format: in vivo, mouse; settings: 300 mg/kg p.o.
Description: as §3

For `CC1(C)C[C@@H]1C(N)=O` [Compound S, (S)-(+)-2,2-dimethylcyclopropanecarboxamide], the “#Protected/#Tested 30 min” value ([1]; 30 mg/kg p.o., Table 1) was “no mice were protected and 0/4”, the “#Protected/#Tested 120 min” value ([1]; 30 mg/kg p.o., Table 1) was “no mice were protected and 0/4” and the “#Prot./#Tested at 15 min” value ([1]; 50 mg/kg p.o., Table 3) was “none of the mice were protected and 0/8”. For the same molecule, the “Seizure Score ± S.E.M.” value ([1]; 50 mg/kg p.o.) was 5 ± 0, the “#Prot./#Tested at 15 min” value ([1]; 60 mg/kg p.o., Table 3) was 5/8 and the mice protected ([1]; 60 mg/kg p.o., 15 minutes, Table 3) was 62.5%. For the same molecule, the “Seizure Score ± S.E.M.” value ([1]; 60 mg/kg p.o.) was 2.1 ± 0.9, the “#Prot./#Tested at 15 min” value ([1]; 75 mg/kg p.o., Table 3) was 7/8 and the mice protected ([1]; 75 mg/kg p.o., 15 minutes, Table 2) was 75%. The mice protected ([1]; 75 mg/kg p.o., 15 minutes, Table 3) was 87.5%, the “Seizure Score ± S.E.M.” value ([1]; 75 mg/kg p.o.) was 1.1 ± 0.6 and the “# Prot./# Tested” value ([1]; 75 mg/kg p.o., ¼ hr, Table 2) was “¾”. The “# Prot./# Tested” value ([1]; 75 mg/kg p.o., ½ hr, Table 2) was “no mice were protected and 0/4”, the “#Prot./#Tested at 15 min” value ([1]; 100 mg/kg p.o., Table 3) was 6/8 and the mice protected ([1]; 100 mg/kg p.o., 15 minutes, Table 2) was 75%. For the same molecule, the mice protected ([1]; 100 mg/kg p.o., 15 minutes, Table 3) was 75%, the “#Protected/#Tested 30 min” value ([1]; 100 mg/kg p.o., Table 1) was 3/4 and the mice protected ([1]; 100 mg/kg p.o., 30 minutes, Table 1) was 75%. For the same molecule, the mice protected ([1]; 100 mg/kg p.o., 30 minutes, Table 2) was 75%, the “# Prot./# Tested” value ([1]; 100 mg/kg p.o., 1 hr, Table 2) was “no mice were protected and 0/4” and the “#Protected/#Tested 120 min” value ([1]; 100 mg/kg p.o., Table 1) was 1/4. For the same molecule, the “# Prot./# Tested” value ([1]; 100 mg/kg p.o., 2 hrs, Table 2) was 1 mouse was protected and 1/4, the mice protected ([1]; 100 mg/kg p.o., 120 minutes, Table 1) was 25% and the “Seizure Score ± S.E.M.” value ([1]; 100 mg/kg p.o.) was 1.6 ± 0.8. For the same molecule, the “# Prot./# Tested” value ([1]; 100 mg/kg p.o., ¼ hr, Table 2) was “¾”, the “# Prot./# Tested” value ([1]; 100 mg/kg p.o., ½ hr, Table 2) was 3/4 and the “#Prot./#Tested at 15 min” value ([1]; 200 mg/kg p.o., Table 3) was “all the mice were protected and 8/8”. For the same molecule, the “Seizure Score ± S.E.M.” value ([1]; 200 mg/kg p.o.) was 0.1 ± 0.1, the “#Protected/#Tested 30 min” value ([1]; 300 mg/kg p.o., Table 1) was “all of the tested mice were protected and 4/4” and the “#Protected/#Tested 120 min” value ([1]; 300 mg/kg p.o., Table 1) was “all of the tested mice were protected and 4/4”. The “average seizure score with dose” value ([1]; 50-200 mg/kg p.o., Table 3) was “generally decreased with increasing doses”, the ED50 ([1]; 0.25 h, p.o., tested at 15 min, 95% confidence interval 50.16-78.92, read-out: ED50 for protection against tonic extension) was 64.9 mg/kg and the ED50 ([1]; Table 4, read-out: ED50) was 64.8 mg/kg. For the same molecule, the “time at which anticonvulsant activity was observed” value ([1]; after oral administration) was “as early as 15 minutes and up to 2 hours”, the “anticonvulsant activity (summary)” value ([1]; p.o.) was “demonstrated activity as an anticonvulsant” and the TD50 at 15 min [2] was over 600 mg/kg. For the same molecule, the “#Toxic/#Tested 30 min” value ([3]; 30 mg/kg p.o., rotarod) was 0/4, the “#Toxic/#Tested 120 min” value ([3]; 30 mg/kg p.o., rotarod) was 0/4 and the “#Toxic/#Tested 30 min” value ([3]; 100 mg/kg p.o., rotarod) was 0/4. For the same molecule, the “#Toxic/#Tested 120 min” value ([3]; 100 mg/kg p.o., rotarod) was 0/4, the “#Toxic/#Tested 30 min” value ([3]; 300 mg/kg p.o., rotarod) was 0/4 and the “#Toxic/#Tested 120 min” value ([3]; 300 mg/kg p.o., rotarod) was 0/4. For the same molecule, the “#Toxic/#Tested at 15 min” value ([3]; 600 mg/kg p.o., 15 min, rotarod) was 1/8, the “mice with a toxic response” value ([3]; 600 mg/kg p.o., 15 minutes, rotarod) was 12.5% and the “separation between efficacy and CNS toxicity” value ([3]; as measured by rotarod impairment, p.o.) was 10 fold. The “toxic responses on the rotarod” value ([3]; doses of Table 1 (30, 100, 300 mg/kg p.o.), 30 or 120 minutes) was “none of the doses produced toxic responses”, the “separation between activity and toxicity (summary)” value ([3]; p.o.) was “good separation between activity and toxicity” and the “toxicity (summary)” value ([3]; p.o., rotarod) was “low toxicity”. For the same molecule, the “# P/# T (protected/tested)” value ([4]; 0.25 hours) was 0/8, the “# P/# T (protected/tested)” value ([4]; 0.5 hours) was 0/8 and the “# P/# T (protected/tested)” value ([4]; 1 hour) was 1/8. The “# P/# T (protected/tested)” value ([4]; 2 hours) was 0/4, the “# P/# T (protected/tested)” value ([4]; 4 hours) was 0/4 and the “# I/# T (impaired/tested)” value ([5]; 0.25 hours) was 0/8. The “# I/# T (impaired/tested)” value ([5]; 0.5 hours) was 1/8, the “# I/# T (impaired/tested)” value ([5]; 1 hour) was 1/8 and the “# I/# T (impaired/tested)” value ([5]; 2 hours) was 0/4. The “# I/# T (impaired/tested)” value ([5]; 4 hours) was 0/4.
